Assay [1] has as its system p21 (WAF1/CIP1) gene. Briefly: Endogenous p21 (WAF1/CIP1) gene expression in PC-3 (AR2) cells stably transfected with AR. Type of assay: cell-based.
Protocol: (§3) A. MCF-7 cells were transfected using Superfect (Qiagen) with 2 μg of pSG5-AR with or without 4 μg of BRCA1, as indicated. Cells were cultured in the presence of 10 nM DHT or vehicle, as indicated. B. PC-3(AR2) cells were transfected under the same conditions as the MCF-7 cells in A. except that AR was not transfected. […] PC-3(AR2) cells transfected with BRCA1 were cultured in the presence of vehicle, 10 nM DHT, or 1 μM hydroxyflutamide (HF).
(§4) The ability of AR and BRCA1 to regulate the endogenous p21 (WAF1/CIP1) gene in MCF-7 breast cancer cells was examined.
In a further assay the test system is ZR-75-1 tumors. Particulars: ovarectomized nude mice, estradiol and DHT pellets; expected result. Here is the method: (§1) After the initial in vitro characterization of the ARKO cells, mouse xenograft experiments are performed. The ARKO cells are subcutaneously injected into ovarectomized nude mice and the parental cell lines serve as xenograft controls. This experiment allows for the comparison of AR positive and AR negative breast carcinoma cells in animals that carry a functional AR gene without the potential confounding effects of using differently derived tumor cell lines. Tumor growth rate is compared in ARKO and parental cell line recipients in response to estradiol treatment, DHT treatment, or combined administration of estradiol and DHT. […] In addition to growth rate, tumors are examined histologically to determine the morphology and degree of vascularization between ARKO cell tumors and tumors generated by the parental cell lines under the different hormonal regimes.
(§2) Female homozygous nude mice (obtained from the Jackson Laboratory) are ovarectomized. […] Ovarectomized mice are also implanted with 1.5 mg 90 day release progesterone hormonal tablets. Only the ovarian cancer based cell lines will be examined in progesterone treated animals. Animals will be subcutaneously injected with […] of the ARKO or parental cells at the time of hormonal implant Hormonal pellets will be replaced as required.

In a further assay the test system is ZR-ARKO derived tumors. Particulars: ovarectomized nude mice, estradiol and DHT pellets; expected result. Here is the method: as §1, §2
For assay [2], the system named is p21 (WAF1/CIP1) gene. The conditions noted are these: 10 nM DHT, MCF-7 cells transfected with AR.
Protocol: as §3, §4
For another assay, the target named is T1, AR (Homo sapiens, UniProt P10275).
T1 construct: expressed in transfected cells; host or cells: DU145
T1 sequence (P10275 1-920): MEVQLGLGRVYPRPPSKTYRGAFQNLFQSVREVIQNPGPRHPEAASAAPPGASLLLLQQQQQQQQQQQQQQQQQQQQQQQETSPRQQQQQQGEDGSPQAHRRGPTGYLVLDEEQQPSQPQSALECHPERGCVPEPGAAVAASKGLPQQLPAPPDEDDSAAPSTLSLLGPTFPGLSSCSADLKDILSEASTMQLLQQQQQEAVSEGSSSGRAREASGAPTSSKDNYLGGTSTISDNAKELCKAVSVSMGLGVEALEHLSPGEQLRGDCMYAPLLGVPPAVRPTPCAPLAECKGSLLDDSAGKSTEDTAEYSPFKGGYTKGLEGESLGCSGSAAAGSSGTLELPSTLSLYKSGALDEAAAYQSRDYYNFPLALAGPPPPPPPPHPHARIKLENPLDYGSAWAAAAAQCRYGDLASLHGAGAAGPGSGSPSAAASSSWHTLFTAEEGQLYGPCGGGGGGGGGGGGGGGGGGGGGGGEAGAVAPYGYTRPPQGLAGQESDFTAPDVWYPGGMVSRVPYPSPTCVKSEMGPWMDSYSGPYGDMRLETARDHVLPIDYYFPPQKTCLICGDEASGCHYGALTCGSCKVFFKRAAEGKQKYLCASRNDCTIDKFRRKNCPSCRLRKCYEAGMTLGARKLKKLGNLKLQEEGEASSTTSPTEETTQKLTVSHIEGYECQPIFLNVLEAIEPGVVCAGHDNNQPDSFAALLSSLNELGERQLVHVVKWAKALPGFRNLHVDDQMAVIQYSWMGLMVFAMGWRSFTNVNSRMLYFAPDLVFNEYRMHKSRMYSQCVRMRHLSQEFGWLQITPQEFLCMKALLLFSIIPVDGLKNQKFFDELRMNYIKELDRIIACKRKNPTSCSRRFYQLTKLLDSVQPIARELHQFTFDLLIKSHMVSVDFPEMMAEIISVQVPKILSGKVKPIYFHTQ
Briefly: AR transcriptional activity, MMTV-CAT reporter gene in DU145 cells transfected with AR with ARA70 or empty vector. Type of assay: cell-based. The conditions noted are these: 10^-10 to 10^-6 M, presence or absence of ARA70. The text has this: The DHT treatments were taken as the positive control. Data represents an average of three independent experiments.
PSA is an androgen target gene that is not transcriptionally activated by the ER (58).
On the technique in general: In a reporter assay the amount or activity of a reporter protein is the signal.

Where two headings read alike, the source gives them in different places.

Regarding `C[C@]12CCC(=O)C[C@@H]1CC[C@@H]1[C@@H]2CC[C@]2(C)[C@@H](O)CC[C@@H]12` [DHT, 5α-dihydrotestosterone], the “endogenous p21 (WAF1/CIP1) gene expression” value was “confirmed” with p21 (WAF1/CIP1) gene [1] (10 nM DHT, PC-3 (AR2) cells) and “induced endogenous p21 (WAF1/CIP1) gene expression” in the assay on p21 (WAF1/CIP1) gene [2]. Further, in the assay with ZR-75-1 tumors, the “estradiol-mediated proliferation of ZR-75-1 tumors” value is recorded as “expected to inhibit”. Besides, in the assay with ZR-ARKO derived tumors, the “estradiol induced proliferation of ZR-ARKO derived tumors in the presence of DHT” value was “expected to continue estradiol induced proliferation”.

For `C[C@]12CC[C@@H]3c4ccc(O)cc4C[C@@H](CCCCCCCCC[S+]([O-])CCCC(F)(F)C(F)(F)F)[C@H]3[C@@H]1CC[C@@H]2O` (stereo partly drawn) [ICI182, 780], the “induction of AR mediated transcription” value at AR was “unable to induce AR mediated transcription”.

Turning to `CC(C)(O)C(=O)Nc1ccc([N+](=O)[O-])c(C(F)(F)F)c1` [hydroxyflutamide], the “effect on DHT induction of p21 (WAF1/CIP1)” value in the assay with p21 (WAF1/CIP1) gene [1] (1 μM hydroxyflutamide, PC-3 (AR2) cells transfected with BRCA1) is listed as “blocks the DHT induction”.

These data come from patent US20040261139A1, “Androgen receptor knock-out transgenic animals” (priority 2001, published 2004).
